Measured values reported in ChEMBL document CHEMBL1146010, “Synthesis and in vitro antimycobacterial activity of N1-nicotinoyl-3-(4'-hydroxy-3'-methyl phenyl)-5-[(sub)phenyl]-2-pyrazolines” (2006).
Values after ≈ are worked out from the molar mass of the structure shown.

System: Mycobacterium tuberculosis
Assay: Antimycobacterial activity against isoniazid-resistant Mycobacterium tuberculosis by agar dilution method
Assay type: functional

| Structure (SMILES) | MIC |
| --- | --- |
| COc1ccc(C2CC(c3ccc(O)c(C)c3)=NN2C(=O)c2ccncc2)cc1OC (configuration not stated) | 0.93 µM (≈ 0.388 µg/mL) |
| NNC(=O)c1ccncc1 [ISONIAZID] | 11.4 µM (≈ 1.56 µg/mL) |
| Cc1cc(C2=NN(C(=O)c3ccncc3)C(c3ccccc3)C2)ccc1O (configuration not stated) | 4.36 µM (≈ 1.56 µg/mL) |
| Cc1cc(C2=NN(C(=O)c3ccncc3)C(c3ccc(N(C)C)cc3)C2)ccc1O (configuration not stated) | 1.95 µM (≈ 0.781 µg/mL) |
| Cc1cc(C2=NN(C(=O)c3ccncc3)C(c3ccccc3Cl)C2)ccc1O (configuration not stated) | 0.26 µM (≈ 0.102 µg/mL) |
| Cc1cc(C2=NN(C(=O)c3ccncc3)C(c3ccc(Cl)cc3)C2)ccc1O (configuration not stated) | 3.98 µM (≈ 1.56 µg/mL) |
| Cc1cc(C2=NN(C(=O)c3ccncc3)C(c3cccc([N+](=O)[O-])c3)C2)ccc1O (configuration not stated) | 7.75 µM (≈ 3.12 µg/mL) |
| Cc1cc(C2=NN(C(=O)c3ccncc3)C(c3ccco3)C2)ccc1O (configuration not stated) | 0.58 µM (≈ 0.201 µg/mL) |
| Cc1cc(C2=NN(C(=O)c3ccncc3)C(c3ccc(F)cc3)C2)ccc1O (configuration not stated) | 0.54 µM (≈ 0.203 µg/mL) |
| COc1ccc(C2CC(c3ccc(O)c(C)c3)=NN2C(=O)c2ccncc2)cc1 (configuration not stated) | 8.05 µM (≈ 3.12 µg/mL) |
| COc1ccc(C2CC(c3ccc(O)c(C)c3)=NN2C(=O)c2ccncc2)c(OC)c1OC (configuration not stated) | 0.87 µM (≈ 0.389 µg/mL) |
| Cc1cc(C2=NN(C(=O)c3ccncc3)C(c3c(Cl)cccc3Cl)C2)ccc1O (configuration not stated) | 0.23 µM (≈ 0.098 µg/mL) |
